Results taken from patent US20040110776A1, “Use of propentofylline to control intraocular pressure” (priority 2003, published 2004).

Assays:
[1] = tested on: human anterior segment; conditions: perfusion of the anterior segment; cited from earlier work
[2] = tested on: MMP-3 expression in cultured human trabecular meshwork (HTM-35D) cells; experiment: MMP-3 expression in cultured human trabecular meshwork (HTM-35D) cells, proMMP-3 ELISA of medium; type: cell-based; conditions: 72 hours; for change in MMP-3 expression in the TM cells: indicated concentration (FIG. 1, lower panel)
Excerpt: Propentofylline was unexpectedly discovered to stimulate the expression of metalloproteinase-3 (MMP-3; stromelysin) in cultured human trabecular meshwork cells.
Effect of Various Compounds on MMP-3 Expression in Cultured Human Trabecular Meshwork (HTM-35D) Cells
Human TM cells were isolated, characterized and cultured as described (Steely et al, The effects of dexamethasone on fibronectin expression in cultured human trabecular meshwork cells, Investigative Ophthalmology and Visual Science, 1992;33:2242-2250) They were maintained at 5% CO2 and 37° C. in a medium consisting of Dulbecco's modified Eagle medium with Glutamax I supplemented with 10% fetal bovine serum and 50 μg/mL gentamicin. Confluent cell cultures were treated with the indicated compounds at the indicated final concentration for 72 hours and the medium assayed for proMMP-3 by a commercially available ELISA assay kit. (See FIG. 1.) Abbreviations: PPF-OH is hydroxypropentofylline.

[3] = tested on: Rabbit IOP; experiment: Rabbit IOP after topical ocular dosing (pneumatonometer); type: in vivo; conditions: for effect on IOP of rabbits (in words): 500 μg topical (2×25 μL, 1% solution); for % Change in IOP Mean / IOP (mmHg) Mean: 500 μg topical, n = 10
Protocol: When propentofylline was tested in the rabbit for its potential effect on IOP. […] In this study, the rabbits were placed in restrainers, and IOP was determined with an Alcon Pneumatonometer after light corneal anesthesia with 0.1% proparacaine (Alcaine® diluted with physiogical saline). Following each IOP measurement, residual anesthetic was washed away with saline. After two baseline measurements, animals were dosed topically on the cornea with vehicle or propentofylline (2×25 μL, 1% solution). IOP measurements were taken at indicated intervals.

[4] = tested on: IOP in ocular normotensive rabbits; conditions: topical instillation of 2%; cited from earlier work
[5] = tested on: anterior segments of non-glaucomatous donor eyes; experiment: Outflow in human ocular perfusion organ culture; conditions: 100 μM continuous perfusion, days 2 and 3 after initiation of perfusion
Protocol: In this ex vivo study, the anterior segments of non-glaucomatous donor eyes were perfused continuously with 100 μM of propentofylline.
Human ocular perfusion organ culture was performed as described (Tschumper, et al. Glycosaminoglycans of human trabecular meshwork in perfusion organ culture. Current Eye Research, 1990;9:363-369; Clark et al, Dexamethasone-induced ocular hypertension in perfusion-cultured human eyes. Investigative Ophthalmology and Visual Science 1995;36:478-489). Briefly, human cadaver eyes, 16 to 20 hours post mortem, were dissected at the equator and the lens, vitreous and iris were removed. The anterior segment of the eye, including cornea and sclera ring containing TM and ciliary body, was placed into a custom-made plexiglass culture dish and sealed in place with a plexiglass O-ring. Culture media (Dulbecco's modified Eagle medium) was placed in a reservoir and perfused through a central cannula in the bottom of the dish. The reservoir was raised to generate approximately 11 mmHg of hydrostatic pressure relative to the center of the perfused eye. The weight of the reservoir was recorded daily. […]
After a 2-4 days stabilization period, the eyes were perfused with either 100 μM propentofylline (PPF) or vehicle alone and their outflow rates monitored for is another 4 days. * represents p<0.05 by Student's t-test. […]

[6] = tested on: lasered monkey eyes; experiment: IOP in lasered (ocular hypertensive) monkey eyes; type: in vivo; conditions: for IOP-lowering effect, single dose: 500 μg in aqueous solution, topical, lasered eye of unanesthetized monkeys; for IOP-lowering effect after repeated doses: 500 μg twice daily, 7 consecutive days, lasered monkey eyes
Protocol: The IOP-lowering effect of propentofylline in primates was discovered when tested in ocular hypertensive monkeys. In this animal model, the IOP of cynomolgus monkeys was artificially elevated by laser-induced photocoagulation of the TM.
Top Panel: IOP-lowering effect of Propentofylline (PPF) (500 μg) in lasered monkey eyes.
These monkeys received 500 μg of propentofylline twice daily for the indicated days and the IOP was measured right after the morning dosing.
Studies were performed as described previously (Toris, et al., Aqueous humor dynamics in monkeys with laser-induced glaucoma, Journal of Ocular Pharmacology and Therapeutics, 2000;16:19-27). (See FIG. 3.)

[7] = tested on: IOP in the rabbit; conditions: cited from earlier work

Molecule: N[C@@H](Cc1c[nH]c2ccccc12)C(=O)NO [L-tryptophan hydroxamate]
- effect on outflow facility / aqueous outflow (in words) [1]: suppressed aqueous outflow

Molecule: CC(=O)CCCCn1c(=O)c2c(ncn2C)n(C)c1=O [Pentoxifylline]
- change in MMP-3 expression in the TM cells [2]: did not produce a statistically significant change
- effect on IOP of rabbits (in words) [3]: did not significantly lower IOP
- % Change in IOP Mean ([3]; 0 hour after treatment): 0.0%
- IOP (mmHg) Mean ([3]; 0 hour after treatment): 23.8 mmHg
- % Change in IOP Mean ([3]; 1 hour after treatment): −8.9%
- IOP (mmHg) Mean ([3]; 1 hour after treatment): 21.6 mmHg
- % Change in IOP Mean ([3]; 3 hours after treatment): −1.8%
- IOP (mmHg) Mean ([3]; 3 hours after treatment): 23.1 mmHg
- % Change in IOP Mean ([3]; 5 hours after treatment): 17.5%
- IOP (mmHg) Mean ([3]; 5 hours after treatment): 27.8 mmHg
- % Change in IOP Mean ([3]; 7 hours after treatment): 15.9%
- IOP (mmHg) Mean ([3]; 7 hours after treatment): 27.3 mmHg
- effect on IOP [4]: slight decrease in IOP

Molecule: CCCn1cnc2c1c(=O)n(CCCCC(C)=O)c(=O)n2C [Propentofylline, 3-methyl-1-(5′-oxohexyl)-7-propyl-xanthine]
- expression of MMP-3 ([2]; 100 μM, cultured human trabecular meshwork cells): significantly increased the expression of MMP-3
- outflow rates compared to vehicle-treated eyes [5]: significantly increased
- effect on IOP of rabbits (in words) [3]: did not affect the IOP of rabbits
- tolerability ([3]; 500 μg topical onto the eye): well tolerated
- % Change in IOP Mean ([3]; 0 hour after treatment): 0.0%
- IOP (mmHg) Mean ([3]; 0 hour after treatment): 23.5 mmHg
- % Change in IOP Mean ([3]; 1 hour after treatment): −10.0%
- IOP (mmHg) Mean ([3]; 1 hour after treatment): 21.0 mmHg
- % Change in IOP Mean ([3]; 3 hours after treatment): 1.3%
- IOP (mmHg) Mean ([3]; 3 hours after treatment): 23.6 mmHg
- % Change in IOP Mean ([3]; 5 hours after treatment): 1.1%
- IOP (mmHg) Mean ([3]; 5 hours after treatment): 23.5 mmHg
- % Change in IOP Mean ([3]; 7 hours after treatment): 4.7%
- IOP (mmHg) Mean ([3]; 7 hours after treatment): 24.0 mmHg
- IOP-lowering effect, single dose [6]: clearly reduced IOP at 1 hour
- IOP-lowering effect, single dose ([6]; listed as propentofylline): dramatic decrease in IOP
- IOP-lowering effect after repeated doses [6]: ocular hypotensive even after repeated doses
- IOP-lowering effect after repeated doses ([6]; listed as propentofylline): persisted even after 7 consecutive days
- tolerability ([6]; monkeys, 500 μg topical): well tolerated

Molecule: OCCN(CCO)c1nc(N2CCCCC2)c2nc(N(CCO)CCO)nc(N3CCCCC3)c2n1 [dipyridamole]
- change in MMP-3 expression in the TM cells [2]: did not produce a statistically significant change

Molecule: CCCn1cnc2c1c(=O)n(CCCCC(C)O)c(=O)n2C (stereo not drawn) [hydroxy-propentofylline]
- change in MMP-3 expression in the TM cells [2]: did not produce a statistically significant change

Molecule: CC(C)OC(=O)CCC/C=C\C[C@@H]1[C@@H](CC[C@@H](O)CCc2ccccc2)[C@H](O)C[C@@H]1O [latanoprost]
- effect on IOP in the rabbit [7]: no measurable effect on IOP

Molecule: CN(C)c1ccc(O)c2c1C[C@H]1C[C@H]3[C@H](N(C)C)C(O)=C(C(N)=O)C(=O)[C@@]3(O)C(O)=C1C2=O [minocylcine]
- effect on outflow facility / aqueous outflow (in words) [1]: suppressed aqueous outflow

Molecule: CC[C@@H]1C(=O)OC[C@@H]1Cc1cncn1C [pilocarpine]
- effect on IOP in the rabbit [7]: no measurable effect on IOP

B1: interleukin-1α: cytokine known to increase the expression of matrix metalloproteinases in the TM (protein, UniProt P01583 113-271, looked up)
Interleukin-1 alpha: SAPFSFLSNVKYNFMRIIKYEFILNDALNQSIIRANDQYLTAAALHNLDEAVKFDMGAYKSSKDDAKITVILRISKTQLYVTAQDEDQPVLLKEMPEIPKTITGSETNLLFFWETHGTKNYFTSVAHPNLFIATKQDYWVCLAGGPPSITDFQILENQA
- effect on outflow facility / aqueous outflow (in words) [1]: augmented the outflow facility
